# Source: patent US20160346291A1, “COMPOSITIONS AND THERAPEUTIC METHODS FOR ACCELERATED PLAQUE REGRESSION” (Resverlogix Corp, priority 2013, published 2016)
# System: ApoA-I mRNA
# Test: ApoA-I mRNA quantitation in HepG2 cells (real-time PCR)
# Type: cell-based
# Design: key: Active: An active compound is one that causes a >15% increase in ApoA-I mRNA at a concentration less than or equal to 100 uM
# Conditions: concentration less than or equal to 100 uM, fold induction relative to DMSO control
# Summary of the method: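 HepG2 cells were lysed after compound treatment and mRNA captured on oligo plates, then quantified by one-step real-time RT-PCR with primer-probe mixes. Ct values gave fold induction relative to the matching DMSO control. Active means >15% increase in ApoA-I mRNA at ≤100 uM.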
row,SMILES,Effect on ApoA-I mRNA levels
1,"COc1cc2nc(-c3cc(C)c(OCC(N)=O)c(C)c3)[nH]c(=O)c2cc1OC [2-(4-(6,7-dimethoxy-4-oxo-3,4-dihydroquinazolin-2-yl)-2,6-dimethylphenoxy)acetamide]",Active
2,"CC(=O)Nc1ccc2nc(-c3cc(C)c(OCCO)c(C)c3)[nH]c(=O)c2c1 [N-(2-(4-(2-hydroxyethoxy)-3,5-dimethylphenyl)-4-oxo-3,4-dihydroquinazolin-6-yl)acetamide]",Active
3,"COc1cc2nc(-c3cc(C)c(O)c(C)c3)[nH]c(=O)c2c(OC)c1CN1CCOCC1 [2-(4-hydroxy-3,5-dimethylphenyl)-5,7-dimethoxy-6-(morpholinomethyl)quinazolin-4(3H)-one]",Active
4,"COc1cc(OC)c2c(=O)[nH]c(-c3ccc(CN4CCOCC4)cc3)nc2c1 [5,7-dimethoxy-2-(4-(morpholinomethyl)phenyl)quinazolin-4(3H)-one]",Active
5,"COc1cc(OC)c2c(=O)[nH]c(-c3cc(C)c(OCC(=O)O)c(C)c3)nc2c1 [2-(4-(5,7-dimethoxy-4-oxo-3,4-dihydroquinazolin-2-yl)-2,6-dimethylphenoxy)acetic acid]",Active
6,"COc1cc(OC)c2c(=O)n(C)c(-c3cc(C)c(O)c(C)c3)cc2c1 [3-(4-hydroxy-3,5-dimethylphenyl)-6,8-dimethoxy-2-methylisoquinolin-1(2H)-one]",Active
7,"CCN1CCN(Cc2ccc(-c3nc4cc(OC)cc(OC)c4c(=O)[nH]3)cc2)CC1 [2-(4-((4-ethylpiperazin-1-yl)methyl)phenyl)-5,7-dimethoxyquinazolin-4(3H)-one]",Active
8,"COc1cc(OC)c2c(=O)[nH]c(-c3cccc(-c4ccc(SC)cc4)n3)nc2c1 [5,7-dimethoxy-2-(6-(4-(methylthio)phenyl)pyridin-2-yl)quinazolin-4(3H)-one]",Active
9,"COc1cc(OC)c2c(=O)[nH]c(-c3cc(C(C)(C)C)c(O)c(C(C)(C)C)c3)nc2c1 [2-(3,5-di-tert-butyl-4-hydroxyphenyl)-5,7-dimethoxyquinazolin-4(3H)-one]",Active
10,"COc1cc(OC)c2c(=O)[nH]c(-c3ccc(CN4CCN(C)CC4)cc3)nc2c1 [5,7-dimethoxy-2-(4-((4-methylpiperazin-1-yl)methyl)phenyl)quinazolin-4(3H)-one]",Active
11,"CC(=O)Nc1ccc2nc(-c3cc(C)c(O)c(C)c3)[nH]c(=O)c2c1 [N-(2-(4-hydroxy-3,5-dimethylphenyl)-4-oxo-3,4-dihydroquinazolin-6-yl)acetamide]",Active
12,"COc1cc2nc(-c3ccc4c(c3)OCCO4)[nH]c(=O)c2cc1OC [2-(2,3-dihydrobenzo[b][1,4]dioxin-6-yl)-6,7-dimethoxyquinazolin-4(3H)-one]",Active
13,"COc1cc(OC)c2c(=O)[nH]c(-c3ccc(N(C)C)c4ccccc34)nc2c1 [2-(4-(dimethylamino)naphthalene-1-yl)-5,7-dimethoxyquinazolin-4(3H)-one]",Active
14,"COc1cc(OC)c2c(=O)[nH]c(-c3cc(C)c(O)c(C)c3)cc2c1 [3-(4-hydroxy-3,5-dimethylphenyl)-6,8-dimethoxyisoquinolin-1(2H)-one]",Active
15,"COc1cc(OC)c2c(=O)[nH]c(-c3cc(C)c(/N=C/N(C)C)c(C)c3)nc2c1 [(E)-N′-(4-(5,7-dimethoxy-4-oxo-3,4-dihydroquinazolin-2-yl)-2,6-dimethylphenyl)-N,N-dimethylformimidamide]",Active
16,"COc1cc(OC)c2c(=O)[nH]c(-c3cc(C)c(OCCNC(=O)N(C)C)c(C)c3)nc2c1 [3-(2-(4-(5,7-dimethoxy-4-oxo-3,4-dihydroquinazolin-2-yl)-2,6-dimethylphenoxy)ethyl)-1,1-dimethylurea]",Active
17,"COc1cc(OC)c2c(=O)[nH]c(-c3cc(C)c(OCCN4CCN(C)CC4)c(C)c3)cc2c1 [3-(3,5-dimethyl-4-(2-(4-methylpiperazin-1-yl)ethoxy)phenyl)-6,8-dimethoxyisoquinolin-1(2H)-one]",Active
18,"COc1cc(OC)c2c(=O)[nH]c(-c3ccc(N(CCO)CCO)cc3)nc2c1 [2-(4-(bis(2-hydroxyethyl)amino)phenyl)-5,7-dimethoxyquinazolin-4(3H)-one]",Active

row,SMILES,Effect on ApoA-I mRNA levels
1,"COc1cc(OC)c2c(=O)[nH]c(-c3cc(C)c(OCCN4CCOCC4)c(C)c3)nc2c1 [2-(3,5-dimethyl-4-(2-morpholinoethoxy)phenyl)-5,7-dimethoxyquinazolin-4(3H)-one]",Active
2,"COc1cc2nc(-c3ccc(N(CCO)CCO)cc3)[nH]c(=O)c2cc1OC [2-(4-(bis(2-hydroxyethyl)amino)phenyl)-6,7-dimethoxyquinazolin-4(3H)-one]",Active
3,"COc1cc2cc(-c3cc(C)c(O)c(C)c3)n(C)c(=O)c2c(OC)c1CN1CCOCC1 [3-(4-hydroxy-3,5-dimethylphenyl)-6,8-dimethoxy-2-methyl-7-(morpholinomethyl) isoquinolin-1(2H)-one]",Active
4,"COc1cc(OC)c2c(=O)[nH]c(-c3cc(C)c(OCCNC(=O)C(C)C)c(C)c3)nc2c1 [N-(2-(4-(5,7-dimethoxy-4-oxo-3,4-dihydroquinazolin-2-yl)-2,6-dimethylphenoxy)ethyl)isobutyramide]",Active
5,Cl.Cl.Cl.Cl.N=C(N)NCCCC(N)C(=O)Oc1ccc(-c2cc3ccccc3cn2)cc1 (stereo not drawn) [4-(Isoquinolin-3-yl)phenyl 2-amino-5-guanidinopentanoate tetrahydrochloride],Active
6,"O=C(O)COc1ccc(-c2nc3ccccc3c(=O)[nH]2)cc1 [2-(4-(4-oxo-3,4-dihydroquinazolin-2-yl)phenoxy)acetic acid]",Active
7,"COc1cc(OC)c2c(=O)[nH]c(-c3cc(C)c(OCCNC(C)=O)c(C)c3)nc2c1 [N-(2-(4-(5,7-dimethoxy-4-oxo-3,4-dihydroquinazolin-2-yl)-2,6-dimethylphenoxy)ethyl)acetamide]",Active
8,"COc1ccc2nc(-c3cc(C)c(OCCO)c(C)c3)[nH]c(=O)c2c1 [2-(4-(2-hydroxyethoxy)-3,5-dimethylphenyl)-6-methoxyquinazolin-4(3H)-one]",Active
9,"Cc1cc(-c2nc3ccc(Br)cc3c(=O)[nH]2)cc(C)c1O [6-bromo-2-(4-hydroxy-3,5-dimethylphenyl)quinazolin-4(3H)-one]",Active
10,"COc1cc(OC)c2c(=O)[nH]c(-c3cc(C)c(OCCN4CCCC4)c(C)c3)nc2c1 [2-(3,5-dimethyl-4-(2-(pyrrolidin-1-yl)ethoxy)phenyl)-5,7-dimethoxyquinazolin-4(3H)-one]",Active
11,"COc1cc(OC)c2c(=O)[nH]c(-c3ccc(N(CCO)CCO)cc3)nc2n1 [2-(4-(bis(2-hydroxyethyl)amino)phenyl)-5,7-dimethoxypyrido[2,3-d]pyrimidin-4(3H)-one]",Active
12,"CNC(=O)OCCOc1c(C)cc(-c2nc3cc(OC)cc(OC)c3c(=O)[nH]2)cc1C [2-(4-(5,7-Dimethoxy-4-oxo-3,4-dihydroquinazolin-2-yl)-2,6-dimethyl-phenoxy)ethyl methylcarbamate]",Active
13,"COc1cc(O)nc2cc(-c3cc(C)c(O)c(C)c3)[nH]c(=O)c12 [2-hydroxy-7-(4-hydroxy-3,5-dimethylphenyl)-4-methoxy-1,6-naphthyridin-5(6H)-one]",Active
14,"COc1cc(OC)c2c(=O)[nH]c(-c3ccc(CCC(=O)O)cc3)nc2c1 [3-(4-(5,7-dimethoxy-4-oxo-3,4-dihydroquinazolin-2-yl)phenyl)propanoic acid]",Active
15,"COc1cc(OC)c2c(=O)[nH]c(-c3cc(C)c(O)c(C)c3)nc2c1 [2-(4-hydroxy-3,5-dimethylphenyl)-5,7-dimethoxyquinazolin-4(3H)-one]",Active
16,"COc1cc2c(c(OC)c1)S(=O)(=O)NC(c1cc(C)c(O)c(C)c1)=C2 [6,8-dimethoxy-3-(4-hydroxy-3,5-dimethylphenyl)-2H-1,2-benzothiazine-1,1-dioxide]",Active
17,"Cc1cc(-c2nc3ccccc3c(=O)[nH]2)cc(C)c1OCCN1CCOCC1 [2-(3,5-dimethyl-4-(2-morpholinoethoxy)phenyl)quinazolin-4(3H)-one]",Active
18,"Cc1cc(-c2cc3ncccc3c(=O)[nH]2)cc(C)c1O [7-(4-hydroxy-3,5-dimethylphenyl)-1,6-naphthyridin-5(6H)-one]",Active

# System: coronary atherosclerosis
# Test: not given
# Conditions: 2 years; rosuvastatin 40 mg daily; overall; cited from earlier work
row,SMILES,median change PAV [%]
1,"CC(C)c1nc(N(C)S(C)(=O)=O)nc(-c2ccc(F)cc2)c1/C=C/[C@@H](O)C[C@@H](O)CC(=O)O [rosuvastatin, (3R,5S,6E)-7-[4-(4-fluorophenyl)-2-(N-methylmethanesulfonamido)-6-(propan-2-yl)pyrimidin-5-yl]-3,5-dihydroxyhept-6-enoic acid]",−0.79

# Same assay, conditions: 2 years; rosuvastatin 40 mg daily; subgroup with average HDL-C during treatment less than 40 mg/dL; cited from earlier work
row,SMILES,median decrease in PAV from baseline [%]
1,"CC(C)c1nc(N(C)S(C)(=O)=O)nc(-c2ccc(F)cc2)c1/C=C/[C@@H](O)C[C@@H](O)CC(=O)O [rosuvastatin, (3R,5S,6E)-7-[4-(4-fluorophenyl)-2-(N-methylmethanesulfonamido)-6-(propan-2-yl)pyrimidin-5-yl]-3,5-dihydroxyhept-6-enoic acid]",−1.3

# Same assay, conditions: FIG. 8; 40 mg of rosuvastatin without RVX-208; after 104 weeks; cited from earlier work
row,SMILES,PAV decrease [%]
1,"CC(C)c1nc(N(C)S(C)(=O)=O)nc(-c2ccc(F)cc2)c1/C=C/[C@@H](O)C[C@@H](O)CC(=O)O [rosuvastatin, (3R,5S,6E)-7-[4-(4-fluorophenyl)-2-(N-methylmethanesulfonamido)-6-(propan-2-yl)pyrimidin-5-yl]-3,5-dihydroxyhept-6-enoic acid]",1.30

# System: ABCA1
# Test: not given
# Conditions: cited from earlier work
row,SMILES,effect on expression of ABCA1
1,"O=C(O)C[C@H](O)C[C@H](O)/C=C/c1c(C2CC2)nc2ccccc2c1-c1ccc(F)cc1 [pitavastatin, (3R,5S,6E)-7-[2-cyclopropyl-4-(4-fluorophenyl)quinolin-3-yl]-3,5-dihydroxyhept-6-enoic acid]",increase expression of ABCA1
2,"CC(C)c1nc(N(C)S(C)(=O)=O)nc(-c2ccc(F)cc2)c1/C=C/[C@@H](O)C[C@@H](O)CC(=O)O [rosuvastatin, (3R,5S,6E)-7-[4-(4-fluorophenyl)-2-(N-methylmethanesulfonamido)-6-(propan-2-yl)pyrimidin-5-yl]-3,5-dihydroxyhept-6-enoic acid]",increase expression of ABCA1

# System: coronary atherosclerosis
# Test: not given
# Conditions: 2 years; rosuvastatin 40 mg daily, atorvastatin 80 mg daily; cited from earlier work
row,SMILES,median change in PAV [%]
1,"CC(C)c1nc(N(C)S(C)(=O)=O)nc(-c2ccc(F)cc2)c1/C=C/[C@@H](O)C[C@@H](O)CC(=O)O [rosuvastatin, (3R,5S,6E)-7-[4-(4-fluorophenyl)-2-(N-methylmethanesulfonamido)-6-(propan-2-yl)pyrimidin-5-yl]-3,5-dihydroxyhept-6-enoic acid]",−1.22
